From patent US8207224B2, “Preservatives based on carboxylic anhydrides” (LANXESS Deutchland GmbH, priority 2006, dated 2012)
Several values for one entry are separate records, joined by “and”; a condition that tells them apart may be missing. Equal entries are not always repeated.

Assays:
Type in all cases: cell-based
[1] = tested on: Mixture of different problem yeasts from a beverage filling unit; assay: Sterilization test in contaminated apple juice against yeast mix; conditions: germ seed 56.000 cfu/ml; as to Visual evaluation after 4 weeks: key: − = not fermented; + = fermented
Experimental: (§1) Soft drinks were contaminated with the respective stated microorganisms. The active compound concentration required for disinfecting the beverages was determined by sterilization tests.
(§2) Nutrient Media: Yeast orange serum agar (from Oxoid CM657)
(§3) Substances: The substances used were employed neat or as ethanolic or butanolic solutions (for example 2.0% by volume) or suspensions. Dimethyl dicarbonate, Na benzoate, K sorbate, sorbic anhydride and benzoic anhydride were synthesized by known methods or were commercially available. The respective solutions were in each case freshly prepared (alcoholysis). Apparatus: 50 ml tissue culture flasks from Greiner, gauze compresses from Holthans, Thoma counting chamber from Brand.
(§4) As a matter of principle, sterile reagents and apparatus were used. In addition to sterile disposable articles, the required apparatus and reagents were sterilized by suitable measures before use. Sterilization measures were heat treatment in a drying cabinet (at least 8 hours at about 120° C.) or in an autoclave (at least 15 minutes at about 120° C.).
(§5) Before the test was carried out, the beverage substrates were filled into tissue culture flasks. In general, the amount of beverage was 40 ml. Filling was carried out under sterile conditions. At this point in time, it was also possible for the persistent preservatives to be introduced.
(§6) The cultures, which were grown under optimum conditions (in tissue culture flasks from Greiner; 50 ml, 25 cm^2 or in oblique agar tubes), were wetted with up to 30 ml (depending on the test germ) of NaCl solution (if appropriate with addition of about 3 drops of Tween 80), rinsed off or, using glass beads (depending on the germ), scrubbed off intensively and, if required, filtered. Alternatively, it was also possible to employ fluid cultures. Using a microscope and a Thoma chamber, it was possible to carry out a preliminary determination of the germ number. An accurate determination of the germ number of the germ solution used was carried out using the Koch inoculation plate method.
(§7) Depending on the given germ seed (for example 50-500 germs/ml of substrate), the appropriate volume of germ solution (original or dilution) were added and the sample was shaken intensively.
(§8) The doses of active compound, added as pure substance or as appropriate alcoholic solution or suspension in the case of dimethyl dicarbonate and the carboxylic anhydrides, were then added. For a period of about 20 seconds, the samples were immediately shaken intensively.
(§9) The beverage samples were stored at a cultivation temperature of 26° C.±2° C.
(§10) In the case of formerly clear beverages, clouding indicates contamination. In the case of cloudy fruit pulp-containing beverages, visual evaluation was not always possible. Accordingly, in these cases evaluation was carried out as a germ number determination in agar.
The tests were carried out as Stated in Example 1.

Saccharomyces cerevisiae = assay: Sterilization test in contaminated apple juice against Saccharomyces cerevisiae; conditions: for Germ number after 24 h (carried out in duplicate): contact time 24 hours at 20° C. As to Visual evaluation after 4 weeks: key: − = not fermented; + = fermented.
Experimental: as §1, §2, §3, §4, §5, §6, §7, §8, §9, §10
The tests were carried out as stated in Example 1.

[2] = tested on: Mixture of different problem yeasts from a beverage filling unit; assay: Sterilization test in contaminated apple juice against yeast mix; conditions: contact time 24 hours at 20° C., germ seed 56.000 cfu/ml; as to Visual evaluation after 4 weeks: key: − = not fermented; + = fermented
[3] = 250 mg/l, pH 3.5, apple juice, germ seed 56 000 cfu/ml
[4] = 250 mg/l, pH 6.0, apple juice, germ seed 56 000 cfu/ml
[5] = Table 2: 250 mg/l, apple juice, germ seed 56.000 cfu/ml
[6] = 177 mg/l, pH 3.5, apple juice, germ seed 56 000 cfu/ml
[7] = 177 mg/l, pH 6.0, apple juice, germ seed 56 000 cfu/ml
[8] = Table 2: 177 mg/l, apple juice, germ seed 56.000 cfu/ml
[9] = 100 mg/l, pH 3.5, apple juice, germ seed 56 000 cfu/ml
[10] = 150 mg/l, pH 3.5, apple juice, germ seed 56 000 cfu/ml
[11] = 150 mg/l, pH 6.0, apple juice, germ seed 56 000 cfu/ml
[12] = Table 2: 50 mg/l, apple juice, germ seed 56.000 cfu/ml
[13] = Table 2: 100 mg/l, apple juice, germ seed 56.000 cfu/ml

`COC(=O)OC(=O)OC` [Dimethyl dicarbonate, reference compound] was tested. Which “Germ number after 24 h (carried out in duplicate)” value (“Germ number after 24 h” for short) ([1]; 250 mg/l, contact time 24 hours at 20° C.) did it give?
Its value is 6.8 × 10^6 and 5.7 × 10^6.

What about the “Visual evaluation after 4 weeks” value ([1]; 250 mg/l) of the same compound?
The value was “+”.

What about the “Visual evaluation after 4 weeks” value (Saccharomyces cerevisiae; [3]) of the same compound?
Its value is “+”.

What about the “Visual evaluation after 4 weeks” value (Saccharomyces cerevisiae; [4]) of the same compound?
Its value is “+”.

And the “Germ number after 24 h” value (Saccharomyces cerevisiae; [5])?
The value was under 10.

And the “Visual evaluation after 4 weeks” value (Saccharomyces cerevisiae; [5])?
The value was “+”.

Which “Visual evaluation after 4 weeks” value ([1]; 177 mg/l) does the source give for `O=C([O-])c1ccccc1.[Na+]` [Na benzoate, Sodium benzoate, reference compound] here?
Its value is “+”.

And the “Germ number after 24 h” value ([2]; 177 mg/l)?
Its value is 1.3 × 10^5 and 1.1 × 10^5.

What about the “Germ number after 24 h” value (Saccharomyces cerevisiae; [6]) of the same compound?
The value was 6.8 × 10^5 and 5.3 × 10^5.

And the “Visual evaluation after 4 weeks” value (Saccharomyces cerevisiae; [6])?
Its value is “+”.

What about the “Germ number after 24 h” value (Saccharomyces cerevisiae; [7]) of the same compound?
The value was 2.6 × 10^6 and 2.2 × 10^6.

What about the “Visual evaluation after 4 weeks” value (Saccharomyces cerevisiae; [7]) of the same compound?
Its value is “+”.

What about the “Germ number after 24 h” value (Saccharomyces cerevisiae; [8]) of the same compound?
The value was 1.3 × 10^5 and 1.1 × 10^5.

What about the “Visual evaluation after 4 weeks” value (Saccharomyces cerevisiae; [8]) of the same compound?
The value was “+”.

What does the source list for `O=C(OC(=O)c1ccccc1)c1ccccc1` [Benzoic anhydride, benzoic anhydride]?
Germ number after 24 h (carried out in duplicate) (Saccharomyces cerevisiae; [9]): <10; Visual evaluation after 4 weeks (Saccharomyces cerevisiae; [9]): −; Visual evaluation after 4 weeks (Saccharomyces cerevisiae; 100 mg/l, pH 6.0, apple juice, germ seed 56 000 cfu/ml): +; Germ number after 24 h (carried out in duplicate) (Saccharomyces cerevisiae; [10]): <10; Visual evaluation after 4 weeks (Saccharomyces cerevisiae; [10]): −; Germ number after 24 h (carried out in duplicate) (Saccharomyces cerevisiae; [11]): about 10; Visual evaluation after 4 weeks (Saccharomyces cerevisiae; [11]): +; Germ number after 24 h (carried out in duplicate) (Saccharomyces cerevisiae; [3]): <10; Visual evaluation after 4 weeks (Saccharomyces cerevisiae; [3]): −; Germ number after 24 h (carried out in duplicate) (Saccharomyces cerevisiae; [4]): <10; Visual evaluation after 4 weeks (Saccharomyces cerevisiae; [4]): −

Which “Visual evaluation after 4 weeks” value ([1]; 50 mg/l) does the source give for `C/C=C/C=C/C(=O)OC(=O)/C=C/C=C/C` [Sorbic anhydride, sorbic anhydride] here?
Its value is “+”.

What about the “Visual evaluation after 4 weeks” value ([1]; 100 mg/l) of the same compound?
Its value is “+”.

And the “Visual evaluation after 4 weeks” value ([1]; 250 mg/l)?
The value was “−”.

And the “Germ number after 24 h” value ([2]; 50 mg/l)?
The value was 2.6 × 10^5 and 1.8 × 10^5.

And the “Germ number after 24 h” value ([2]; 100 mg/l)?
Its value is 9.2 × 10^4 and 9.4 × 10^4.

And the “Germ number after 24 h” value ([2]; 250 mg/l)?
The value was 985 and 1080.

What about the “Germ number after 24 h” value (Saccharomyces cerevisiae; [12]) of the same compound?
The value was under 10.

What about the “Visual evaluation after 4 weeks” value (Saccharomyces cerevisiae; [12]) of the same compound?
Its value is “−”.

And the “Germ number after 24 h” value (Saccharomyces cerevisiae; [13])?
The value was under 10.

And the “Visual evaluation after 4 weeks” value (Saccharomyces cerevisiae; [13])?
Its value is “−”.

And the “Germ number after 24 h” value (Saccharomyces cerevisiae; [5])?
Its value is under 10.

What about the “Visual evaluation after 4 weeks” value (Saccharomyces cerevisiae; [5]) of the same compound?
The value was “−”.
